# Assay results reported in the supplement of paper PMC8253809.
# Assays:
# DIPGX37 [1] = H3.3 K27M diffuse intrinsic pontine glioma line; test: maximal growth inhibition (yFin) relative to DMSO / staurosporine; higher = more efficacious
# In short: (§1)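 A pin tool was used to add a 10-point threefold dilution series (mean top concentration 35 μM), in triplicate, to patient-derived pHGG/DIPG cell lines and astrocyte controls seeded on 384-well plates coated with 1% Geltrex. After 7 days at 37 °C and 5% CO2 (3 days for iAstro), CellTiter-Glo luminescence was log2-transformed, normalised on each plate to % activity relative to negative (solvent) and positive control wells, and pooled. EC50 and maximal response (yFin) were read from the three- or four-parameter log-logistic fit with the lowest AICc.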
# SUDIPGIV [2] = diffuse intrinsic pontine glioma line; test: as above
# In short: as §1
# HGGX6 [3] = H3.3 G34R paediatric high-grade glioma line; test: as above
# In short: as §1
# SUDIPGXXI [4] = diffuse intrinsic pontine glioma line; test: as above
# In short: as §1
# SUDIPGXVII [5] = diffuse intrinsic pontine glioma line; test: as above
# In short: as §1
# HGGX42 [6] = H3.3 G34R paediatric high-grade glioma line; test: as above
# In short: as §1
# HGGX2 [7] = paediatric high-grade glioma line; test: as above
# In short: as §1
# HGGX39 [8] = paediatric high-grade glioma line; test: as above
# In short: as §1
# DIPGX9 [9] = diffuse intrinsic pontine glioma line; test: as above
# In short: as §1
# SUDIPGXIII [10] = diffuse intrinsic pontine glioma line; test: as above
# In short: as §1
# SUDIPGVI [11] = diffuse intrinsic pontine glioma line; test: as above
# In short: as §1
# SUDIPGXIX [12] = diffuse intrinsic pontine glioma line; test: as above
# In short: as §1
# DIPGX29 [13] = H3.3 K27M diffuse intrinsic pontine glioma line; test: as above
# In short: as §1
# DIPGX37 [14] = test: area under dose-response curve of % growth inhibition (log2 RLU vs DMSO / staurosporine), 1e-11 to 1e-4 M (% x log10 M); higher = more growth inhibition
# In short: (§2)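 A 10-point threefold dilution series, mean top concentration 35 μM, was applied in triplicate to patient-derived pHGG/DIPG lines and astrocytes on 1% Geltrex-coated 384-well plates for 7 days (3 days for iAstro) at 37 °C, 5% CO2. Per-plate % activity between solvent and positive controls was calculated from log2-transformed CellTiter-Glo luminescence. Area under the curve followed from the trapezoid rule on a log-logistic fit, or on a smoothing spline when the sigmoid fit failed.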
# SUDIPGIV [15] = test: as above
# In short: as §2
# HGGX6 [16] = test: as above
# In short: as §2
# SUDIPGXXI [17] = test: as above
# In short: as §2
# SUDIPGXVII [18] = test: as above
# In short: as §2
# HGGX42 [19] = test: as above
# In short: as §2
# HGGX2 [20] = test: as above
# In short: as §2
# iAstro = astrocyte control; test: as above
# In short: as §2
# HABS = astrocyte control; test: as above
# In short: as §2
# HGGX39 [21] = test: as above
# In short: as §2
# DIPGX7 = H3.3 K27M diffuse intrinsic pontine glioma line; test: as above
# In short: as §2
# DIPGX9 [22] = test: as above
# In short: as §2
# SUDIPGXIII [23] = test: as above
# In short: as §2
# SUDIPGVI [24] = test: as above
# In short: as §2
# SUDIPGXIX [25] = test: as above
# In short: as §2
# DIPGX29 [26] = test: as above
# In short: as §2
SMILES,maximal growth inhibition (DIPGX37 [1]) [%],maximal growth inhibition (SUDIPGIV [2]) [%],maximal growth inhibition (HGGX6 [3]) [%],maximal growth inhibition (SUDIPGXXI [4]) [%],maximal growth inhibition (SUDIPGXVII [5]) [%],maximal growth inhibition (HGGX42 [6]) [%],maximal growth inhibition (HGGX2 [7]) [%],maximal growth inhibition (HGGX39 [8]) [%],maximal growth inhibition (DIPGX9 [9]) [%],maximal growth inhibition (SUDIPGXIII [10]) [%],maximal growth inhibition (SUDIPGVI [11]) [%],maximal growth inhibition (SUDIPGXIX [12]) [%],maximal growth inhibition (DIPGX29 [13]) [%],area under dose-response curve (DIPGX37 [14]),area under dose-response curve (SUDIPGIV [15]),area under dose-response curve (HGGX6 [16]),area under dose-response curve (SUDIPGXXI [17]),area under dose-response curve (SUDIPGXVII [18]),area under dose-response curve (HGGX42 [19]),area under dose-response curve (HGGX2 [20]),area under dose-response curve (iAstro),area under dose-response curve (HABS),area under dose-response curve (HGGX39 [21]),area under dose-response curve (DIPGX7),area under dose-response curve (DIPGX9 [22]),area under dose-response curve (SUDIPGXIII [23]),area under dose-response curve (SUDIPGVI [24]),area under dose-response curve (SUDIPGXIX [25]),area under dose-response curve (DIPGX29 [26])
CC(C)(C)c1cnc(CSc2cnc(NC(=O)C3CCNCC3)s2)o1,86.8,103,83.9,110,95.8,87.2,57,84.8,104,92.1,82.8,116,84,192,221,151,320,199,216,130,55.9,121,171,208,281,176,196,245,185
c1ccc2c(-c3cnn4cc(-c5ccc(N6CCNCC6)cc5)cnc34)ccnc2c1,99,107,92.8,119,107,102,104,88.9,108,105,105,113,95.2,163,171,146,291,172,171,185,137,129,147,183,202,162,166,187,165
COc1ccc(C[C@H](NC(=O)[C@H](C)NC(=O)CN2CCOCC2)C(=O)N[C@@H](Cc2ccccc2)C(=O)C2(C)CO2)cc1 (stereo in doubt) [ONX-0914],95.7,89.7,92.2,93.9,91.8,68,87.4,91.9,96.9,89.5,85.8,95,71.9,242,255,182,328,175,186,277,243,206,209,220,252,230,233,245,156
CCN1CCN(Cc2ccc(Nc3ncc(F)c(-c4cc(F)c5nc(C)n(C(C)C)c5c4)n3)nc2)CC1 [ABEMACICLIB],99.9,76.8,69.4,96.9,61.1,30.7,42.3,84.4,43.3,52.5,48.9,110,38.4,255,156,127,252,123,83.9,120,161,93.8,193,233,124,109,102,248,107
CN(C)C/C=C/C(=O)Nc1cc2c(Nc3ccc(F)c(Cl)c3)ncnc2cc1O[C@H]1CCOC1 [AFATINIB],95.5,111,93.5,120,109,108,109,93.2,118,92.1,111,120,91.2,116,90.9,86.1,168,87.7,108,115,80.2,102,99.2,108,144,85.6,130,123,110
O=C(Nc1c[nH]nc1-c1nc2ccc(CN3CCOCC3)cc2[nH]1)NC1CC1 [AT9283],107,99.7,97.8,114,102,104,96.7,91.6,109,97.8,101,112,108,132,167,134,310,128,178,87.8,42.3,173,186,143,203,77.4,97.6,184,150
